Structures are written as SMILES.

1 molecule from BindingDB's records for doi:10.1016/s0960-894x(98)00670-2 (Vertex Pharmaceuticals, 1999) can be followed below.

The experiment concerns the target T1, Gag-Pol polyprotein [489-587] (Human immunodeficiency virus 1, UniProt P04585).
T1 construct: 489-587
As to the kind of experiment: ChEBML_157552. The protocol:
Compound was assayed for inhibition against HIV protease activity

As a reminder, the Ki is the equilibrium dissociation constant of an inhibitor or competing ligand from its target. Low values mean higher affinity, high ones lower affinity. Molecule `COc1ccc(S(=O)(=O)N(CC2CCCC2)C[C@@H](O)CN(CCc2ccccc2)C(=O)OCc2cccnc2)cc1` [{(S)-3-[Cyclopentylmethyl-(4-methoxy-benzenesulfonyl)-amino]-2-hydroxy-propyl}-phenethyl-carbamic acid pyridin-3-ylmethyl ester] showed a Ki of 17 nM.
